Assay results: patent US4476122A, “Alkyloximes of 7-amino-thiazolyl-acetamido-cephalosporanic acids” (Roussel Uclaf, priority 1976, dated 1984)
In brackets after ≈: the same amount, converted by molar mass. Like-named read-outs stand apart in the source and are kept apart here.

How the values were obtained:
[1] = test system: Escherichia Coli 68 696; assay: MIC, liquid medium dilution; assay type: cell-based
Description: (§1) The method used was a dilution of a liquid medium where a series of tubes received the same quantity of a sterile nutritive media and increasing doses of the test compounds were placed therein. Then each tube was seeded with a bacterial strain and was incubated for 24 or 48 hours at 37° C. in an oven. The increasing inhibition was determined by transillumination to determine the minimum inhibiting concentration (MIC in μg/ml) and the results are reported in the following Tables.

[2] = test system: White Staphylococcus 21 976; assay: MIC, liquid medium dilution; assay type: cell-based
Description: as §1

[3] = test system: Escherichia Coli 73 316; assay: MIC, liquid medium dilution; assay type: cell-based
Description: as §1

[4] = test system: Escherichia Coli 21 976; assay: MIC, liquid medium dilution; assay type: cell-based
Description: as §1

[5] = test system: Escherichia Coli 72 806; assay: MIC, liquid medium dilution; assay type: cell-based
Description: as §1

[6] = test system: Escherichia Coli 19 976; assay: MIC, liquid medium dilution; assay type: cell-based
Description: as §1

[7] = test system: Escherichia Coli 69 916; assay: MIC, liquid medium dilution; assay type: cell-based
Description: as §1

[8] = test system: Pathogenic white Staphylococcus 69 396; assay: MIC, liquid medium dilution; assay type: cell-based
Description: as §1

[9] = test system: Golden Staphylococcus 68 666; assay: MIC, liquid medium dilution; assay type: cell-based
Description: as §1

[10] = test system: Escherichia Coli 69 886; assay: MIC, liquid medium dilution; assay type: cell-based
Description: as §1

[11] = test system: Escherichia Coli 68 956; assay: MIC, liquid medium dilution; assay type: cell-based
Description: as §1

[12] = test system: Klebsiella pneumonia 52,145; assay: Experimental infection with Klebsiella pneumonia in mice (D); assay type: in vivo
Description: The activity of the products of Examples 19 and 21 was studied on an experimental infection of Klebsiella pneumonia in mice. Groups of 10 male mice weighing 21.5 g received intraperitoneally 0.5 ml of a 24 hour culture in nutritive media of Klebsiella pneumonia 52,145 diluted by 1/1000 with distilled water. The products were administered subcutaneously 1,5 and 24 hours after the injection and the number of dead mice were determined using 10th days.

[13] = Hygroscopicity of the crystalline salt; assay type: physicochemical; settings: microcrystalline sodium salt
[14] = test system: Klebsiella pneumonia 52,145; assay: Experimental infection with Klebsiella pneumonia in mice (C); assay type: in vivo; settings: subcutaneous
Description: The activity of the products of Examples 4 and 6 was studied on an experimental infection of Klebsiella pneumonia in mice. Groups of 10 male mice weighing 21 g were infected by an intraperitoneal injection of 0.5 ml of a culture in nutrive media of Klebsiella pneumonia 52,145 diluted by 1/1000 with distilled water. The products were administered subcutaneously 30 minutes, 4, 8, 24 and 32 hours after the injection and the number of dead mice was determined during 10th days.

[15] = test system: Streptococcus pyogenes A 561; assay: MIC, liquid medium dilution; assay type: cell-based; settings: read-out: MIC
Description: as §1

[16] = test system: Escherichia Coli Exp. TO26 B6; assay: MIC, liquid medium dilution; assay type: cell-based
Description: as §1

[17] = test system: Proteus mirabilis (indol-) A 235; assay: MIC, liquid medium dilution; assay type: cell-based; settings: read-out: MIC
Description: as §1

[18] = test system: Serratia Resistant Gentamicine 2 532; assay: MIC, liquid medium dilution; assay type: cell-based; settings: read-out: MIC
Description: as §1

[19] = test system: Staphylococcus aureus ATCC 6 538 Pen-Sensitive; assay: MIC, liquid medium dilution; assay type: cell-based; settings: read-out: MIC
Description: as §1

[20] = test system: Staphylococcus aureus exp. n° 54 146; assay: MIC, liquid medium dilution; assay type: cell-based
Description: as §1

[21] = test system: Salmonella typhimurium 420; assay: MIC, liquid medium dilution; assay type: cell-based; settings: Salmonella enterica
Description: as §1

[22] = test system: Pseudomonas 3 935 Exp. SG; assay: MIC, liquid medium dilution; assay type: cell-based; settings: 3935EXP.SG
Description: as §1

[23] = test system: Escherichia Coli Sensitive Tetracycline ATCC 9 637; assay: MIC, liquid medium dilution; assay type: cell-based
Description: as §1

[24] = test system: Enterobacter cloacae 681; assay: MIC, liquid medium dilution; assay type: cell-based
Description: as §1

[25] = test system: Streptococcus faecalis 99 F 74; assay: MIC, liquid medium dilution; assay type: cell-based; settings: Enterococcus faecalis
Description: as §1

[26] = test system: Escherichia Coli Resistant Gentamicine, Tobramycine R 55 123 D; assay: MIC, liquid medium dilution; assay type: cell-based
Description: as §1

[27] = test system: Proteus vulgaris (indol+) A 232; assay: MIC, liquid medium dilution; assay type: cell-based
Description: as §1

[28] = test system: Bacillus subtilis ATCC 6 633; assay: MIC, liquid medium dilution; assay type: cell-based
Description: as §1

[29] = test system: Klebsiella pneumoniae 2 536 Resistant Gentamicine; assay: MIC, liquid medium dilution; assay type: cell-based
Description: as §1

[30] = test system: Escherichia Coli Resistant Tetracycline ATCC 11 303; assay: MIC, liquid medium dilution; assay type: cell-based; settings: read-out: MIC
Description: as §1

[31] = test system: Staphylococcus aureus UC 1 128 Pen-Resistant; assay: MIC, liquid medium dilution; assay type: cell-based
Description: as §1

[32] = test system: Streptococcus faecalis 5 432; assay: MIC, liquid medium dilution; assay type: cell-based
Description: as §1

[33] = test system: Klebsiella pneumoniae Exp. 52 145; assay: MIC, liquid medium dilution; assay type: cell-based; settings: read-out: MIC
Description: as §1

[34] = test system: Providencia Du 48; assay: MIC, liquid medium dilution; assay type: cell-based
Description: as §1

CO/N=C(\C(=O)NC1C(=O)N2C(C(=O)O)=C(CSC(C)=O)CSC12)c1csc(N)n1 (stereo not shown) [Example 21, sodium 3-acetylthiomethyl-7-[{2-(2-amino-4-thiazolyl)-2-methoxyiminoacetyl}amino]-ceph-3-eme-4-carboxylate]
MIC ([1]; COLI68696, 24 h): 0.4 µg/mL | MIC ([1]; COLI68696, 48 h): 0.4 µg/mL | MIC ([2]; 24 h): 3 µg/mL | MIC ([2]; 48 h): 5 µg/mL | MIC ([3]; COLI73316, 24 h): 0.2 µg/mL | MIC ([3]; COLI73316, 48 h): 0.2 µg/mL | MIC ([4]; COLI21976, 24 h, read-out: MIC): 0.6 µg/mL | MIC ([4]; COLI21976, 48 h): 0.6 µg/mL | MIC ([5]; COLI72806, 24 h): 1 µg/mL | MIC ([5]; COLI72806, 48 h): 1 µg/mL | MIC ([6]; COLI19976, 24 h, read-out: MIC): 0.6 µg/mL | MIC ([6]; COLI19976, 48 h): 0.6 µg/mL | MIC ([7]; COLI69916, 24 h): 0.4 µg/mL | MIC ([7]; COLI69916, 48 h): 0.4 µg/mL | MIC ([8]; 24 h): 2 µg/mL | MIC ([8]; 48 h): 2 µg/mL | MIC ([9]; 24 h): 3 µg/mL | MIC ([9]; 48 h): 5 µg/mL | MIC ([10]; COLI69886, 24 h, read-out: MIC): 0.6 µg/mL | MIC ([10]; COLI69886, 48 h): 1 µg/mL | MIC ([11]; COLI68956, 24 h): 0.4 µg/mL | MIC ([11]; COLI68956, 48 h): 0.4 µg/mL | Mice alive on the 10th day ([12]; subcutaneous, 0,1 mg): 9/10 | Mortality after 4eJ (number of dead of 10) ([12]; subcutaneous, 0,1 mg): 1 | Mice alive on the 10th day ([12]; subcutaneous, 0,05 mg): 9/10 | Mortality after 73H 15 (number of dead of 10) ([12]; subcutaneous, 0,05 mg): 1 | Mice alive on the 10th day ([12]; subcutaneous, 0,5 mg): 10/10 | Mice alive on the 10th day ([12]; subcutaneous, 0,25 mg): 10/10 | Mice alive on the 10th day ([12]; subcutaneous, 1 mg): 10/10

CO/N=C(\C(=O)NC1C(=O)N2C(C(=O)O)=C(CSC(C)=O)CSC12)c1csc(N)n1 (stereo not shown) [Example 22, sodium 3-acetylthiomethyl-7-[{2-(2-amino-4-thiazolyl)-2-methoxyiminoacetyl}amino]-ceph-3-eme-4-carboxylate]
hygroscopicity [13]: non-hydroscopic

CO/N=C(\C(=O)NC1C(=O)N2C(C(=O)O)=C(CSc3nnnn3C)CS[C@H]12)c1csc(N)n1 (stereo partly shown) [Example 4, 7-[{2-(2-amino-4-thiazolyl)-2-methoxyiminoacetyl}amino]-3-[(1-methyl-tetrazol-5-yl)-thiomethyl]-ceph-3-eme-4-carboxylic acid]
Mice alive on the 10th day ([14]; 5 × 0,1 mg): 9/10 | Mortality after 5 J (number of dead of 10) ([14]; 5 × 0,1 mg): 1 | Mice alive on the 10th day ([14]; 5 × 0,25 mg): 10/10 | MIC ([15]; A561, 24 h): ≤ 0.02 µg/mL | MIC ([15]; A561, 48 h): ≤ 0.02 µg/mL | MIC ([16]; 24 h): 0.2 µg/mL (≈ 0.391 µM) | MIC ([16]; 48 h): 0.2 µg/mL (≈ 0.391 µM) | MIC ([17]; 24 h): 0.05 µg/mL (≈ 0.0977 µM) | MIC ([17]; 48 h): 0.05 µg/mL (≈ 0.0977 µM) | MIC ([18]; 24 h): 1 µg/mL (≈ 1.95 µM) | MIC ([18]; 48 h): 1 µg/mL (≈ 1.95 µM) | MIC ([19]; ATCC6, 24 h): 1 µg/mL (≈ 1.95 µM) | MIC ([19]; ATCC6, 48 h): 1 µg/mL (≈ 1.95 µM) | MIC ([20]; 24 h): 2 µg/mL (≈ 3.91 µM) | MIC ([20]; 48 h): 2 µg/mL (≈ 3.91 µM) | MIC ([21]; 24 h): 0.2 µg/mL (≈ 0.391 µM) | MIC ([21]; 48 h): 0.2 µg/mL (≈ 0.391 µM) | MIC ([22]; 24 h): 20 µg/mL (≈ 39.1 µM) | MIC ([22]; 48 h, read-out: MIC): 40 µg/mL (≈ 78.2 µM) | MIC ([23]; ATCC9, 24 h): 0.4 µg/mL (≈ 0.782 µM) | MIC ([23]; ATCC9, 48 h): 0.4 µg/mL (≈ 0.782 µM) | MIC ([24]; Enterobacter cloacae, 681, 24 h): 20 µg/mL (≈ 39.1 µM) | MIC ([24]; Enterobacter cloacae, 681, 48 h): 20 µg/mL (≈ 39.1 µM) | MIC ([25]; 99F74, 24 h): 2 µg/mL (≈ 3.91 µM) | MIC ([25]; 99F74, 48 h, read-out: MIC): 10 µg/mL (≈ 19.5 µM) | MIC ([26]; 24 h): 0.2 µg/mL (≈ 0.391 µM) | MIC ([26]; 48 h): 0.2 µg/mL (≈ 0.391 µM) | MIC ([27]; 24 h, read-out: MIC): 3 µg/mL (≈ 5.86 µM) | MIC ([27]; 48 h): 20 µg/mL (≈ 39.1 µM) | MIC ([28]; ATCC6, 24 h): 2 µg/mL (≈ 3.91 µM) | MIC ([28]; ATCC6, 48 h, read-out: MIC): 5 µg/mL (≈ 9.77 µM) | MIC ([29]; 24 h): 0.4 µg/mL (≈ 0.782 µM) | MIC ([29]; 48 h, read-out: MIC): 0.6 µg/mL (≈ 1.17 µM) | MIC ([30]; ATCC11, 24 h): 0.05 µg/mL (≈ 0.0977 µM) | MIC ([30]; ATCC11, 48 h): 0.05 µg/mL (≈ 0.0977 µM) | MIC ([31]; UC1, 24 h): 2 µg/mL (≈ 3.91 µM) | MIC ([31]; UC1, 48 h): 2 µg/mL (≈ 3.91 µM) | MIC ([32]; Enterococcus faecalis, 5432, 24 h): 2 µg/mL (≈ 3.91 µM) | MIC ([32]; Enterococcus faecalis, 5432, 48 h): 2 µg/mL (≈ 3.91 µM) | MIC ([33]; EXP.52145, 24 h): 0.02 µg/mL (≈ 0.0391 µM) | MIC ([33]; EXP.52145, 48 h): 0.02 µg/mL (≈ 0.0391 µM) | MIC ([34]; DU48, 24 h): 2 µg/mL (≈ 3.91 µM) | MIC ([34]; DU48, 48 h): 2 µg/mL (≈ 3.91 µM)
